Experiment in all cases: NCI tumour cell line growth inhibition, 48 h
Assay [1] concerns SK-MEL-28.
Assay [2] relates to NCI-H23.
Assay [3] deals with U-251.
Assay [4] concerns LOX IMVI.
The subject of assay [5] is OVCAR-5.
Assay [6] deals with HOP-92.
Assay [7] concerns OVCAR-4.
Assay [8] relates to HCT-116.
The test system of assay [9] is UACC-62.
Assay [10] concerns SW-620.
For assay [11], the system named is SR.
Assay [12] has as its system CCRF-CEM.
The test system of assay [13] is NCI-H460.
For assay [14], the system named is HT-29.
In assay [15] the test system is MDA-N.
In assay [16] the test system is COLO 205.
The test system of assay [17] is ACHN.
Assay [18] deals with BT-549.
Assay [19] has as its system HL-60.
The test system of assay [20] is EKVX.

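All cell lines were grown in 96-well plates and treated with compound for 48 hours. GI50 = concentration required for 50% inhibition of growth.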 Active and inactive are the calls of the source. Rule as the data show it: active = GI50 up to about 1.1 µM and inactive = higher.

In the case of `COc1cccc([C@H]2CC(=O)c3cc4c(cc3N2)OCO4)c1`, the GI50 is 4.82 µM (inactive) in assay [1]; 0.451 µM (active) in assay [2]; 0.393 µM (active) in assay [3]; 0.714 µM (active) in assay [4]; 0.441 µM (active) in assay [5]; 19.1 µM (inactive) in [6]. For the same molecule, the GI50 was 20.6 µM (inactive) in assay [7]; 0.352 µM (active) in [8]; 0.406 µM (active) in [9]; 0.428 µM (active) in assay [10]; 0.318 µM (active) in assay [11]; 0.49 µM (active) in [12]. In addition, the GI50 was 0.411 µM (active) in assay [13]; 0.194 µM (active) in assay [14]; 0.0789 µM (active) in assay [15]; 0.296 µM (active) in assay [16]; 0.847 µM (active) in assay [17]; 8.59 µM (inactive) in assay [18].
Regarding `NC(=O)c1nnc2cc(F)ccc2c1N`, the GI50 in assay [2] was > 100 µM (inactive); in [3], > 100 µM (inactive); in [19] it was > 100 µM (inactive); in assay [4], 78.3 µM (inactive); in [5] it was > 100 µM (inactive); in assay [7] it was > 100 µM (inactive). The GI50 in assay [20] was 85.7 µM (inactive); in [8] it was > 100 µM (inactive); in assay [9] it was 97.3 µM (inactive); in assay [10] it was > 100 µM (inactive); in [11], > 100 µM (inactive); in assay [12], > 100 µM (inactive). In addition, the GI50 is > 100 µM (inactive) in assay [13]; > 100 µM (inactive) in assay [14]; > 100 µM (inactive) in [15]; > 100 µM (inactive) in assay [16]; 80.4 µM (inactive) in [17]; 84.9 µM (inactive) in [18].
On to `COc1ccc(/C(C)=N/NC(=O)c2ccncc2)cc1OC`, for which the GI50 in assay [2], in assay [3], in assay [19], in assay [4], in assay [6] and in assay [7] was > 10 µM (inactive) throughout. For the same molecule, the GI50 in assay [9], in [10], in assay [11], in assay [12], in assay [13] and in [15] was > 10 µM (inactive) in each case. In addition, the GI50 in assay [16] and in assay [18] was > 10 µM (inactive) in each case.
With `Nc1ncnc2c1ncc(=O)n2C1CC(O)C(CO)O1` (configuration not stated), the GI50 in [1], in assay [2], in assay [3], in assay [4], in assay [5] and in assay [6] was > 100 µM (inactive) throughout. The GI50 in [7], in assay [20], in assay [8], in assay [9], in [10] and in [11] was > 100 µM (inactive) each time. For the same molecule, the GI50 in [12], in assay [13], in [14], in [15], in [16] and in assay [17] was > 100 µM (inactive) in each case. For the same molecule, in assay [18], the GI50 was > 100 µM (inactive).
`CCOC(=O)c1nc2cc(C(F)(F)F)ccc2nc1Nc1ccc(OC)c(OC)c1`: the GI50 in assay [1], in assay [2], in assay [19], in assay [4], in [5] and in assay [6] was > 100 µM (inactive) each time. The GI50 in assay [20], in assay [8], in assay [9], in [10], in assay [11] and in [12] was > 100 µM (inactive) in each case. Also, the GI50 in [13], in [14], in assay [15], in assay [16], in assay [17] and in [18] was > 100 µM (inactive) throughout.
Regarding `CO/C(=N\N=C\c1ccc(C(F)(F)F)cc1)c1ccncc1`, the GI50 in assay [2], in assay [3], in [19], in assay [4], in [5] and in assay [6] was > 10 µM (inactive) throughout. The GI50 in [7], in [20], in assay [8], in assay [10], in assay [11] and in [12] was > 10 µM (inactive) throughout. For the same molecule, the GI50 in assay [13], in assay [14], in assay [15], in [16], in [17] and in assay [18] was > 10 µM (inactive) throughout.
Regarding `c1ccc2c(c1)SCCCS2`, the GI50 in [1], in assay [2], in assay [3], in [19], in [4] and in [5] was > 100 µM (inactive) throughout. In addition, the GI50 in assay [6] was 22.4 µM (inactive); in assay [7] it was > 100 µM (inactive); in assay [20], > 100 µM (inactive); in assay [8] it was > 100 µM (inactive); in [9] it was > 100 µM (inactive); in [10] it was > 100 µM (inactive). In addition, the GI50 in [11], in assay [12], in [13], in assay [14], in assay [15] and in [16] was > 100 µM (inactive) in each case. Moreover, the GI50 in [18] was > 100 µM (inactive).
For `Cc1nnc([C@@]2(C)CC[C@H]3[C@@H](CC=C4C[C@@H](O)CC[C@@]43C)[C@@H]2CC#N)o1`, the GI50 in assay [2], in assay [3], in [19], in assay [4], in [5] and in assay [6] was > 100 µM (inactive) in each case. The GI50 in assay [7], in assay [20], in [8], in assay [9], in assay [10] and in assay [11] was > 100 µM (inactive) each time. Moreover, the GI50 in [12], in assay [14], in [15], in assay [16], in assay [17] and in assay [18] was > 100 µM (inactive) in each case.
With `O=c1cc(NNc2cccc(F)c2)[nH]c(=S)[nH]1`, the GI50 in assay [1] was > 100 µM (inactive); in assay [3], 54.6 µM (inactive); in [19], 71.9 µM (inactive); in assay [4], 49.3 µM (inactive); in assay [5], > 100 µM (inactive); in assay [6], 19.2 µM (inactive). In addition, the GI50 in assay [7], in assay [20], in assay [8], in assay [10], in assay [11] and in assay [13] was > 100 µM (inactive) throughout. For the same molecule, the GI50 in [14] was > 100 µM (inactive); in assay [15], > 100 µM (inactive); in [16] it was 77.1 µM (inactive); in assay [17], > 100 µM (inactive); in assay [18] it was > 100 µM (inactive).
Turning to `CCOP(=O)(CC(=O)C1CC1)OCC`, the GI50 in [1], in [2], in assay [3], in assay [19], in [4] and in assay [5] was > 100 µM (inactive) each time. Also, the GI50 in [7], in assay [20], in assay [8], in assay [9], in assay [10] and in [11] was > 100 µM (inactive) throughout. Also, the GI50 in assay [12], in assay [13], in [14], in assay [15], in [16] and in [17] was > 100 µM (inactive) in each case. The GI50 in [18] is > 100 µM (inactive).
Consider `O/N=C\c1c2c(cc3c1CCC3)CCC2`, for which the GI50 in assay [1], in [2], in [3], in assay [19], in assay [4] and in assay [5] was > 100 µM (inactive) in each case. Also, the GI50 in [7], in assay [20], in [8], in [9], in assay [10] and in assay [11] was > 100 µM (inactive) throughout. Besides, the GI50 in [12], in assay [13], in [14], in [15], in assay [16] and in assay [17] was > 100 µM (inactive) throughout. Moreover, in [18], the GI50 was > 100 µM (inactive).

Values taken from ChEMBL document CHEMBL1201862, “PubChem BioAssay data set” (2004).
